# From PMC9871744 (Cellular and Molecular Gastroenterology and Hepatology, 2022)
# Values joined by “and” are separate entries in the source; they are usually repeats but may differ in a detail not shown here. Equal entries are not always repeated.
# Columns and labels:
# [1] = system: S typhimurium tester strains TA98, TA100, TA1535, and TA1537 and E coli tester strain WP2uvrA(pKM101); conditions: all doses with and without S9
# human fungiform TBC = assay: Ca2+ signaling in human fungiform TBC; type: cell-based
# [2] = Pharmacokinetics and detection in blood by LC-MS; type: in vivo, mice
# Hela-9903 cells = assay: Cytotoxicity in the estrogen receptor reporter cells; type: cell-based
# [3] = system: chorda tympani (CT) nerve; assay: Chorda tympani; type: in vivo; conditions: lingual application in mice; 1, 2, and 4 mmol/L; normalized to NH4Cl 100 mmol/L
# C57Bl/6 male mice = assay: Two-bottle preference and licking tests; type: in vivo; conditions: 50 μmol/L in 0.3% xanthan gum, 12 hours
# MDA-kb2 cells = assay: Cytotoxicity in the androgen receptor reporter cells; type: cell-based
# Cytotoxicity evaluation = conditions: human, Cytotoxicity (%); for cytotoxicity at 0.05 mmol/L: 0.050 mmol/L; for cytotoxicity at 0.1 mmol/L: 0.100 mmol/L
# [4] = system: human androgen receptor (hAR); assay: Androgen receptor transcriptional activation and inhibition assays; type: cell-based
# HepG2 cells = assay: Micronucleus analysis
# [5] = target: T1, human estrogen receptor alpha (hERα) (Homo sapiens, UniProt P03372); assay: Estrogen receptor transcriptional activation and inhibition assays; type: cell-based
# T1 sequence (P03372 1-595): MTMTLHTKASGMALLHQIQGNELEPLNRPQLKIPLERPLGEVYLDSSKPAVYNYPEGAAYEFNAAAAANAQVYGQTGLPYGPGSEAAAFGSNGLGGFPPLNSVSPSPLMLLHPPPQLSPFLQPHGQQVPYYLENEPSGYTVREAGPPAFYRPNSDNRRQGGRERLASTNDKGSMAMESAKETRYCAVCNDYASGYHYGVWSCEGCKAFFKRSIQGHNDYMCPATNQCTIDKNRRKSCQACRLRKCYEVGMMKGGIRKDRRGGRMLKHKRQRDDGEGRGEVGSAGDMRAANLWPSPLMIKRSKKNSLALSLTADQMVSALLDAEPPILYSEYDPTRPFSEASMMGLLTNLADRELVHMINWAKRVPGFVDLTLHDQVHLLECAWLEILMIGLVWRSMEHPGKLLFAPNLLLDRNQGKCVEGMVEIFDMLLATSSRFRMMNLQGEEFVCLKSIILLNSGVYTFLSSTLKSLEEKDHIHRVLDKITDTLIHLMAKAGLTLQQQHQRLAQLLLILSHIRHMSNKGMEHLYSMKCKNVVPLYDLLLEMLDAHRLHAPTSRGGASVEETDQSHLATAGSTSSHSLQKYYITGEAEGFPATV
# female Wistar rats = assay: Toxicity / median lethal dose test, OECD guidelines 425; type: in vivo
# C57BL/6J male mice = assay: Diet-induced obesity; type: in vivo
# mouse fungiform TBC = assay: Ca2+ signaling in mouse fungiform TBC; type: cell-based; conditions: LA at 20 μmol/L
# [6] = bicompartmental model (Monolix), mice i.v.
# [7] = extended treatment in the absence of S9 mix, 0.0065 mmol/L
# [8] = extended treatment in the absence of S9 mix, 0.010 mmol/L
# [9] = extended treatment in the absence of S9 mix, 0.020 mmol/L
# [10] = short treatment in absence of S9 mix
# [11] = short treatment in the presence of S9 mix
# [12] = extended treatment in the absence of S9 mix, 2.5 mmol/L (Table 14)
# [13] = extended treatment in the absence of S9 mix, 5 mmol/L (Table 14)
# [14] = extended treatment in the absence of S9 mix, 10 mmol/L (Table 14)
# [15] = short treatment in the absence of S9 mix, 0.025 mmol/L
# [16] = short treatment in the absence of S9 mix, 0.05 mmol/L
# [17] = short treatment in the absence of S9 mix, 0.10 mmol/L
# [18] = short treatment in the presence of S9 mix, 0.025 mmol/L
# [19] = short treatment in the presence of S9 mix, 0.05 mmol/L
# [20] = short treatment in the presence of S9 mix, 0.10 mmol/L
# [21] = rats, single oral 2000 mg/kg, means ± SEM (n = 5)
structure (smiles),measurement,setting,value
"CCCCC/C=C\C/C=C\CCCCCCCCP(=O)(OCC)OCC [NKS-3, diethyl (9Z,12Z)-octadeca-9,12-dien-1-ylphosphonate]",toxicity in the tester strains,[1],No toxicity
same,Ca2+ signaling compared with a dietary long-chain fatty acid,human fungiform TBC,higher
same,"increase in intracellular free Ca2+ concentrations, [Ca2+]i","human fungiform TBC; NKS-3 50 μmol/L, NKS-5 25 μmol/L",induced a rapid increase
same,"Intercompartmental clearance, population pharmacokinetic estimation mean",[2]; [6],0.739 L/h
same,"Proportional residual error, population pharmacokinetic model",[2]; [6],1.89%
same,"Volume of central compartment, population pharmacokinetic estimation mean",[2]; [6],0.0634 L
same,"Volume of peripheral compartment, population pharmacokinetic estimation mean",[2]; [6],2.24 L
same,detection in blood circulation after intravenous injections (LC-MS),[2]; mice,could be detected
same,AUClast as share of the total exposure,"[2]; mice, intravenous 10 mg/kg",about 80%
same,AUClast,"[2]; mice, intravenous 10 mg/kg body weight, NCA (AUC0–6 h), 10 mg/kg",59.94 ± 12.09 mg/kg/Lxh
same,Tmax,"[2]; mouse, plasma, iv, 10 mg/kg",5 min
same,Vd,"[2]; mouse, plasma, iv, 10 mg/kg",1.23 ± 0.279 L/kg
same,clearance,"[2]; mouse, plasma, iv, 10 mg/kg",2.82 mL/min/kg and 3.37 mL/min
same,half-life,"[2]; mouse, plasma, iv, 10 mg/kg",4 h
same,AUC(0-t),"[2]; mouse, plasma, iv, 10 mg/kg, AUClast, mice, intravenous 10 mg/kg body weight, NCA (AUC0–6 h)",~60000 ng·h/mL
same,Cmax,"[2]; mouse, plasma, iv, 10 mg/kg, mice, dose of 10 mg/kg body weight",~48000 ng/mL
same,Cmax,"[2]; mouse, plasma, iv, 10 mg/kg, mice, intravenous 10 mg/kg body weight, NCA, means ± SEM, five mice",46700 ± 15300 ng/mL
same,cytotoxic concentrations,Hela-9903 cells; Hela-9903 cells,≥ 10 µmol/L
same,highest non-cytotoxic concentration,Hela-9903 cells; estrogen receptor assays,5 µmol/L
same,"CT nerve responses compared with dietary LCFAs (LA, OA)",[3],higher
same,preference in 2-bottle paradigm versus control solution,C57Bl/6 male mice,significant preference
same,cytotoxic concentrations,MDA-kb2 cells; MDA-kb2 cells,≥ 10 µmol/L
same,highest non-cytotoxic concentration,MDA-kb2 cells; androgen receptor assays,5 µmol/L
same,cytotoxicity at 0.0065 mmol/L,Cytotoxicity evaluation; [7],24.9%
same,cytotoxicity at 0.01 mmol/L,Cytotoxicity evaluation; [8],35.3%
same,cytotoxicity at 0.02 mmol/L,Cytotoxicity evaluation; [9],49.5%
same,cytotoxicity at 0.03 mmol/L,"Cytotoxicity evaluation; extended treatment in the absence of S9 mix, 0.030 mmol/L",72.8%
same,cytotoxicity at 0.04 mmol/L,"Cytotoxicity evaluation; extended treatment in the absence of S9 mix, 0.040 mmol/L",73.7%
same,cytotoxicity at 0.025 mmol/L,Cytotoxicity evaluation; [10],-9.99%
same,cytotoxicity at 0.05 mmol/L,Cytotoxicity evaluation; [10],14.7%
same,cytotoxicity at 0.1 mmol/L,Cytotoxicity evaluation; [10],56.2%
same,cytotoxicity at 0.25 mmol/L,Cytotoxicity evaluation; [10],65.5%
same,cytotoxicity at 0.025 mmol/L,Cytotoxicity evaluation; [11],-3.6%
same,cytotoxicity at 0.05 mmol/L,Cytotoxicity evaluation; [11],-5.03%
same,cytotoxicity at 0.1 mmol/L,Cytotoxicity evaluation; [11],19.4%
same,cytotoxicity at 0.25 mmol/L,Cytotoxicity evaluation; [11],73%
same,androgenic or antiandrogenic property (conclusion),[4],did not possess androgenic or antiandrogenic property
same,MNBN cells frequency (%),HepG2 cells; [7],0.8% and 0.6%
same,Mean frequency (%) of MNBN cells,HepG2 cells; [7],0.70%
same,MNBN cells frequency (%),HepG2 cells; [8],0.9% and 0.8%
same,Mean frequency (%) of MNBN cells,HepG2 cells; [8],0.85%
same,MNBN cells frequency (%),HepG2 cells; [9],0.9% and 0.6%
same,Mean frequency (%) of MNBN cells,HepG2 cells; [9],0.75%
same,MNBN cells frequency (%),HepG2 cells; [12],0.9% and 0.7%
same,Mean frequency (%) of MNBN cells,HepG2 cells; [12],0.80%
same,MNBN cells frequency (%),HepG2 cells; [13],0.9% and 0.8%
same,Mean frequency (%) of MNBN cells,HepG2 cells; [13],0.85%
same,MNBN cells frequency (%),HepG2 cells; [14],1.0% and 0.9%
same,Mean frequency (%) of MNBN cells,HepG2 cells; [14],0.95%
same,MNBN cells frequency (%),HepG2 cells; [15],0.6% and 0.5%
same,Mean frequency (%) of MNBN cells,HepG2 cells; [15],0.55%
same,MNBN cells frequency (%),HepG2 cells; [16],0.7%
same,Mean frequency (%) of MNBN cells,HepG2 cells; [16],0.70%
same,MNBN cells frequency (%),HepG2 cells; [17],0.7% and 0.6%
same,Mean frequency (%) of MNBN cells,HepG2 cells; [17],0.65%
same,MNBN cells frequency (%),HepG2 cells; [18],0.7%
same,Mean frequency (%) of MNBN cells,HepG2 cells; [18],0.70%
same,MNBN cells frequency (%),HepG2 cells; [19],0.6% and 0.8%
same,Mean frequency (%) of MNBN cells,HepG2 cells; [19],0.70%
same,MNBN cells frequency (%),HepG2 cells; [20],0.6% and 0.4%
same,Mean frequency (%) of MNBN cells,HepG2 cells; [20],0.50%
same,estrogenic or antiestrogenic potential (conclusion),[5],did not exert an estrogenic or antiestrogenic potential
same,weight of kidneys,female Wistar rats; [21],1.82 ± 0.193 g
same,weight of liver,female Wistar rats; [21],8.12 ± 0.188 g
same,weight of spleen,female Wistar rats; [21],0.96 ± 0.12 g
same,toxic effect on liver enzymes and blood lipid parameters,"female Wistar rats; rats, single oral limit dose 2000 mg/kg body weight, 2 weeks",No toxic effect
same,"evidence of toxicity, preliminary study","female Wistar rats; single animal, oral dosages of 5000 mg/kg body weight",no evidence of toxicity
same,"CD36 (reduced) and GPR120 (high) protein expression in TBC, Western blots","C57BL/6J male mice; HFD animals, FTA intake 16 weeks",reversed this trend
same,locomotor activity,C57BL/6J male mice; HFD mice,increased
same,LA-induced decreases in [Ca2+]i in TBC from obese mice,C57BL/6J male mice; HFD mice given FTA 16 weeks,reversed
same,daily energy expenditure (indirect calorimetry),C57BL/6J male mice; HFD-fed mice,significantly increased
same,leptin mRNA expression in adipose tissues,C57BL/6J male mice; HFD-fed mice,failed to significantly decrease
same,fecal microbiota: bacterial family increased,"C57BL/6J male mice; HFD-fed mice, 16S rRNA sequencing, week 26",Marinifilaceae
same,"adipose tissue mRNA encoding leptin, CD36, TNF-α, and IL6","C57BL/6J male mice; HFD-fed mice, epididymal adipose tissue",down-regulated
same,crown-like structures of adipocytes,"C57BL/6J male mice; obese animals, histology",decreased
same,"release of GLP-1, CCK-1, and PYY into blood circulation","C57BL/6J male mice; obese mice, end of week 26",induced the release
same,Ca2+ signaling compared with a dietary long-chain fatty acid,mouse fungiform TBC,higher
